This is an account of results in patent publication US10851075B2, “Stat3 pathway inhibitors and cancer stem cell inhibitors” (Sumitomo Dainippon Pharma Oncology, Inc., priority 2007, dated 2020).

Broadly, the IC50 is the concentration needed to halve the response being measured.

“Also recorded” adds a separate entry of the source. Where two headings read alike, the source gives them in different places.

In one assay the test system is HeLa cells. The assay is described as follows: MTT cell viability, HeLa. The class given is cell-based. The settings on record: Homo sapiens, MTT at 24 hours. An excerpt: (§1) Cell Culture: HeLa, DU145, H1299, DLD1, SW480, A549, MCF7, LN18, HCT116, HepG2, Paca2, Panel, LNcap, FaDu, HT29, and PC3 cells (ATCC, Manassas, Va.) were maintained in Dulbecco's Modified Eagle Medium (DMEM) (Invitrogen, Carlsbad, Calif.) supplemented with 10% fetal bovine serum (MS) (Gemini Bio-Products, West Sacramento, Calif.) and 5% penicillin/streptomycin/amphotercin B (Invitrogen).
(§2) Cell Viability Determination: For 3-(4,5 dimethylthiazol-2-yl)-2,5-diphenyltetrazolium (MTT) (Sigma-Aldrich, St. Louis, Mo.) analysis, cells were plated in 96 well plates at 10,000 cells per well. 24 hours after plating, compound was added to cells at indicated doses. 22 hours following compound addition, MTT was added to each well (0.5 mg/ml, final concentration) and plates were incubated for an additional 2 hours at 37° C., Medium was then aspirated and the formazan product was solubilized in 100 μl of isopropyl alcohol. The absorbance of each well was measured at 570 nm using a microplate reader.
(§3) Identification of compounds that are apoptotic to a broad spectrum of cancer cells in vitro. Cells plated in 96 well plates and treated with indicated compounds were subjected to MTT analysis at 24 hours following compound treatment to determine cell viability.

Assay [1] deals with T1, Stat3 DNA-binding activity (Homo sapiens, UniProt P40763).
T1 construct: endogenous in cells; host or cells: HeLa cells (nuclear extract)
The assay can be described thus: Stat3 DNA binding assay (EMSA), HeLa nuclear extract. Type of assay: biochemical. The settings on record: for inhibition % 1 × MTT IC50: compound at 1 × MTT IC50, untreated Stat3 retarded band set as 100; for inhibition % 3 × MTT IC50: compound at 3 × MTT IC50, untreated Stat3 retarded band set as 100. Here is the method:
STAT3 DNA Binding Assay: Electrophoretic mobility shift assay (EMSA) was performed as described by the manufacturer (Li-Cor Biosciences, Lincoln, Nebr.). Briefly, nuclear extracts were made from HeLa cells using the NucBuster Protein Extraction Kit as described by the manufacturer (EMD Biosciences, San Diego, Calif.). 5 μg of nuclear extract was pre-incubated with the indicated dose of indicated compound for 30 minutes prior to a 15-minute incubation with the IR700-labeled consensus Stat3 oligonucleotide. Samples were then electrophoresed on a polyacrylamide gel and directly scanned using the Odyssey infrared imaging system (Li-Cor Biosciences). For the enzyme-linked immunosorbent assay (ELISA), 5 μg of nuclear extract was preincubated with indicated concentration of indicated compound for 30 minutes prior to the addition of biotinylated oligo (5′-Biotin-[…]-3′). Stat3-DNA complexes were then captured on streptavidin coated 96 well plates (Pierce, Rockford, Ill.). Bound complexes were then incubated with Stat3 polyclonal antibody (Santa Cruz Biotechnology, Santa Cruz, Calif.) followed by anti-rabbit HRP conjugated secondary antibody (GE Healthcare, Pittsburgh, Pa.). Bound antibody was then visualized by addition of TMB substrate (Pierce) and absorbance measured at 450 nm.
Inhibition of Stat3 DNA-binding activity. Nuclear extracts from HeLa cells, which contain constitutively activated Stat3 as detected by phoshporylation at the tyrosine 705 residue, were used to perform Stat3 EMSAs to monitor Stat3 DNA binding activity. Nuclear extracts were incubated with indicated compound prior to incubation with IR700-labeled Stat3 consensus oligonucleotide. Binding of Stat3 to the oligonucleotide was monitored by gel electrophoresis and detection using a LiCor Odyssey infrared scanner.
To calculate the inhibition %, the density of the untreated Stat3 retarded band (control) was set as 100 and the inhibition % was the difference between the control and the relative DNA binding activity of the drug-treated samples.
On the technique in general: In EMSA bound probe runs differently from free probe, usually more slowly.

Another assay concerns CD44^low FaDu cells. The assay is described as follows: Anti-CSC MTT assay, CD44low FaDu cells. The class given is cell-based. The settings on record: Homo sapiens, 48 h.
The test system of the next assay is SW480 NSP cells. The assay can be described thus: Anti-CSC MTT assay, SW480 non-SP (NSP) cells. The class given is cell-based. To be noted: Homo sapiens, 48 h. Here is the method: as §2
(§4) Hoechst Side Population: To identify and isolate side population (SP) and non-SP fractions, SW480 cells were removed from the culture dish with trypsin and EDTA, pelleted by centrifugation, washed with phosphate-buffered saline (PBS), and resuspended at 37° C. in Dulbecco's modified Eagle's medium (DMEM) containing 2% FBS and 1 rnM HEPES. The cells were then labeled with Hoechst 33342 (Invitrogen) at a concentration of 5 μg/mL. The labeled cells were incubated for 120 minutes at 37° C., either alone or with 50 μM verapamil (Sigma-Aldrich, St. Louis). After staining, the cells were suspended in Hanks' balanced saline solution (MISS; Invitrogen) containing 2% FBS and 1 mM HEPES, passed a through 40 μm mesh filter, and maintained at 4° C. until flow cytometry analysis. The Hoechst dye was excited at 350 nm, and its fluorescence was measured at two wavelengths using a 450 DF10 (450/20 nm band-pass filter) and a 675LP (675 nm long-pass edge filter) optical filter. The gating on forward and side scatter was not stringent, and only debris was excluded.
(§5) In order to test compounds for anti-CSC activity, freshly isolated CSCs (SW480 Hoechst SP cells or CD44^high FaDu cells) were exposed to a dose range (30-0.117 μM) of compound for 48 h before examining cell viability by MTT assay. IC50s were estimated by plotting the percentage of surviving cells. As shown in Table 7 and Table 8, the compounds of present invention can target cancer stem cells.
(In general: Tetrazolium assays rely on reduction of a dye to a coloured formazan, in cell work by metabolically active cells.)

In a further assay the test system is SW480 Hoechst SP cells. The assay can be described thus: Anti-CSC MTT assay, SW480 Hoechst side population (SP) cells. Type of assay: cell-based. The settings on record: Homo sapiens, 48 h. Here is the method: as §2, §4, §5
The test system of the next assay is DU145 cells. The assay is described as follows: MTT cell viability, DU145. To be noted: Homo sapiens, DU-145, MTT at 24 hours. Type of assay: cell-based.
From the text: as §1, §2, §3

In another assay the test system is H1299 cells. The assay can be described thus: MTT cell viability, H1299. The class given is cell-based. To be noted: Homo sapiens, NCI-H1299, MTT at 24 hours.
From the text: as §1, §2, §3

For a further assay, the system named is CD44^high FaDu cells. The assay can be described thus: Anti-CSC MTT assay, CD44high FaDu cells. The class given is cell-based. The settings on record: Homo sapiens, 48 h. As to the method: as §2
CD44^high cells were isolated by FACS according to the methods described in Ponti et al., with slight modification. Briefly, after trypsinization and recovery of cells for 30 minutes at 37° C. in growth media, cells were pelleted at 400×g and were resuspended in PBS with 2% FBS and 1 mM EDTA at 1×10^6 cells/mL. Cells were then incubated on ice with a 1:100 dilution of CD44-FITC (BD Biosicences, San Diego, Calif.) for 15 minutes. Alternatively, CD24-PE (BD Bioscences, San Diego, Calif.) (1:100) was utilized for negative selection. After washing three times, cells were resuspended at 2×10^6/mL and passed through a […] mesh before sorting
as §5

For the next assay, the system named is DLD1 cells. The assay is described as follows: MTT cell viability, DLD1. The class given is cell-based. The settings on record: Homo sapiens, DLD-1; DLD1, Colon; MTT at 24 hours; Table 3.
From the text: as §1, §2, §3

For another assay, the system named is HepG2 cells. The assay is described as follows: MTT cell viability, HepG2. The class given is cell-based. The settings on record: Homo sapiens; HepG2, Liver; MTT at 24 hours; Table 3.
From the text: as §1, §2, §3

Another assay relates to MCF7 cells. The assay can be described thus: MTT cell viability, MCF7. The class given is cell-based. The settings on record: Homo sapiens; MCF7, Breast; MTT at 24 hours; Table 3.
From the text: as §1, §2, §3

The test system of a further assay is FaDu cells. The assay is described as follows: MTT cell viability, FaDu. The class given is cell-based. To be noted: Homo sapiens, MTT at 24 hours.
From the text: as §1, §2, §3

For another assay, the system named is LNCap cells. The assay can be described thus: MTT cell viability, LNCap. Type of assay: cell-based. To be noted: Homo sapiens, Prostate, MTT at 24 hours, Table 3.
From the text: as §1, §2, §3

A further assay relates to HCT116 cells. The assay can be described thus: MTT cell viability, HCT116. The settings on record: Homo sapiens, HCT-116; HCT116, Colon; MTT at 24 hours; Table 3. The class given is cell-based.
From the text: as §1, §2, §3

A further assay has as its system HT29 cells. The assay can be described thus: MTT cell viability, HT29. The class given is cell-based. The settings on record: Homo sapiens, HT-29; HT29, Colon; MTT at 24 hours; Table 3.
From the text: as §1, §2, §3

The subject of another assay is Paca2 cells. The assay can be described thus: MTT cell viability, Paca2. The class given is cell-based. To be noted: PaCa-2; Paca2, Pancreas; MTT at 24 hours; Table 3.
From the text: as §1, §2, §3

A further assay has as its system A549 cells. The assay is described as follows: MTT cell viability, A549. The settings on record: Homo sapiens; A549, Lung; MTT at 24 hours following compound treatment; Table 3. Type of assay: cell-based.
From the text: as §1, §2, §3

A further assay concerns PC3 cells. The assay can be described thus: MTT cell viability, PC3. The class given is cell-based. The settings on record: Homo sapiens, PC-3; PC3, Prostate; MTT at 24 hours; Table 3.
From the text: as §1, §2, §3

For a further assay, the system named is SW480 cells. The assay can be described thus: MTT cell viability, SW480. Type of assay: cell-based. To be noted: Homo sapiens; SW480, Colon; MTT at 24 hours; Table 3.
From the text: as §1, §2, §3

The test system of a further assay is Panc1 cells. The assay is described as follows: MTT cell viability, Panc1. Type of assay: cell-based. The settings on record: Homo sapiens, PANC-1; Panc1, Pancreas; MTT at 24 hours; Table 3.
From the text: as §1, §2, §3

Setting [2] is: Hela, Table 4, read-out: IC50 (μM) Hela.
[3] abbreviates: DU145, Table 4, read-out: IC50 (μM) DU145.
[4] abbreviates: H1299, Table 4, read-out: IC50 (μM) H1299.

T1 sequence (P40763 whole entry): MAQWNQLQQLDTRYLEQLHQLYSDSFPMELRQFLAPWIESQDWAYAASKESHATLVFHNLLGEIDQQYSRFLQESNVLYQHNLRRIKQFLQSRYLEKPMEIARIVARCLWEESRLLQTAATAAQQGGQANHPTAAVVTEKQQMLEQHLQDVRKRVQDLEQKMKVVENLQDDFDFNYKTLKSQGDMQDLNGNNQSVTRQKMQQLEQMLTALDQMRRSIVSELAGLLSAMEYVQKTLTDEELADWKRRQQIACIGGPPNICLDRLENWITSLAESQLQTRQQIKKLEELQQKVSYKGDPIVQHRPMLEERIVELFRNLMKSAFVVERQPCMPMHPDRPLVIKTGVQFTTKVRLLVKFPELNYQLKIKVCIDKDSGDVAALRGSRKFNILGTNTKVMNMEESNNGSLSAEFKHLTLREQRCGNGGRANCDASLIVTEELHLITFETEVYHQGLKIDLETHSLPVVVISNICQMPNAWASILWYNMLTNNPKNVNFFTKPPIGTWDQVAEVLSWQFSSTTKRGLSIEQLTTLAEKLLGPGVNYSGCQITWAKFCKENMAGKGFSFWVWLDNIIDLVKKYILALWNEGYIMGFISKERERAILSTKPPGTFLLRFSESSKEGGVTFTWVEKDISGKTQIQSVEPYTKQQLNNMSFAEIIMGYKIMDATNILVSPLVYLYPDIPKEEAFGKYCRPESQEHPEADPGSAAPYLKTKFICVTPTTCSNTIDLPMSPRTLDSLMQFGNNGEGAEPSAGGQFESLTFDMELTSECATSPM

Consider `O=C1c2ccccc2C(=O)c2oc(C(O)c3ccccc3)cc21` (stereo not shown) [Compound 302], for which the IC50 with HeLa cells (setting [2]) turned out to be 7.8 µM; with CD44^low FaDu cells, 3.68 µM; in the assay with SW480 NSP cells it was 1.29 µM; in the assay on SW480 Hoechst SP cells, 2.06 µM; with DU145 cells (setting [3]), 4.9 µM; in the assay with H1299 cells (setting [4]) it was 7.2 µM. The compound further gave a 50% inhibitory concentration (IC50) in the assay with CD44^high FaDu cells of 0.68 µM. Besides, the “inhibition % 1 × MTT IC50” value in [1] is listed as 6%. In addition, the “inhibition % 3 × MTT IC50” value in [1] was 25%.
On to `C=Cc1cc2c(o1)C(=O)c1cc(F)ccc1C2=O` [Compound 202], for which the IC50 with HeLa cells (setting [2]) was 4.56 µM; in the assay with CD44^low FaDu cells, 2.25 µM; in the assay with DU145 cells (setting [3]) it was 2.65 µM; in the assay with CD44^high FaDu cells it was 2.4 µM. In addition, the “inhibition % 1 × MTT IC50” value in assay [1] came to 50%. Moreover, the “inhibition % 3 × MTT IC50” value in assay [1] stood at 46%.
With `CC(=O)c1cc2c(o1)C(=O)c1ccccc1C2=O` [Compound 401], the concentration for half-maximal inhibition (IC50) turned out to be 0.43 µM in the assay with HeLa cells (HeLa, Cervix, Table 3, read-out: IC50); 0.428 µM in the assay on HeLa cells (setting [2]); 330 nM in the assay on DLD1 cells; 0.33 µM in the assay on SW480 NSP cells; 250 nM with HepG2 cells; 460 nM with MCF7 cells. Besides, the IC50 with FaDu cells (Head and Neck, Table 3, read-out: IC50) was 0.39 µM; in the assay on FaDu cells (Table 4, read-out: IC50 (μM) FaDu), 0.39 µM; in the assay with LNCap cells it was 630 nM; in the assay with HCT116 cells, 580 nM; in the assay on HT29 cells, 1270 nM; with SW480 Hoechst SP cells, 0.34 µM. The concentration for half-maximal inhibition (IC50) in the assay on Paca2 cells was found to be 110 nM; with A549 cells it was 950 nM; with DU145 cells (DU145, Prostate, Table 3, read-out: IC50), 0.12 µM; in the assay with DU145 cells (setting [3]), 0.116 µM; in the assay on PC3 cells it was 2370 nM; in the assay with SW480 cells, 320 nM. The IC50 came out at 1700 nM in the assay on Panc1 cells; 0.23 µM in the assay on H1299 cells (H1299, Lung, Table 3, read-out: IC50); 0.234 µM in the assay with H1299 cells (setting [4]). Also, the “inhibition of Stat3 DNA binding (in words)” value in assay [1] (HeLa nuclear extract, FIG. 6A/6B) is on record as “Dose dependent inhibition of Stat3 DNA binding; also recorded: inhibits Stat3 DNA-binding activity”.
Consider `CC(O)c1cc2c(o1)C(=O)c1cc(F)ccc1C2=O` (stereo not shown) [Compound 304], for which the IC50 was found to be 1.67 µM in the assay with HeLa cells (setting [2]), 2.49 µM with CD44^low FaDu cells, 1.84 µM in the assay with DU145 cells (setting [3]) and 2.41 µM in the assay on CD44^high FaDu cells. In addition, the “inhibition % 1 × MTT IC50” value in [1] stood at 25%. For the same compound, in assay [1], the “inhibition % 3 × MTT IC50” value is 55%.
